From patent publication US20240166635A1, “AMINOHETEROARYL KINASE INHIBITORS” (Anrui Biomedical Technology (Guangzhou) Co.,Ltd., priority 2020, published 2024)

Key:
Type in all cases: biochemical
CDK9/CyclinT1 = CDK9/CyclinT1 (Homo sapiens (Human), UniProt P50750); test: CDK9/CyclinT1 kinase inhibitory activity (Caliper mobility shift); settings: read-out: CDK9/Cyclin T1 IC50
CDK6/CyclinD1 = CDK6/CyclinD1 (Homo sapiens (Human), UniProt Q00534); test: CDK6/CyclinD1 kinase inhibitory activity (Caliper mobility shift); settings: read-out: CDK6/Cyclin D1 IC50
CDK2/CyclinE1 = CDK2/CyclinE1 (Homo sapiens (Human), UniProt P24941); test: CDK2/CyclinE1 kinase inhibitory activity (Caliper mobility shift); settings: read-out: CDK2/Cyclin El IC50
CDK4/Cyclin D1 = CDK4/Cyclin D1 (Homo sapiens (Human), UniProt P11802); test: CDK4/CyclinD1 kinase inhibitory activity (Caliper mobility shift)
CDK1/CyclinB = CDK1/CyclinB (Homo sapiens (Human), UniProt P06493); test: CDK1/CyclinB kinase inhibitory activity (Caliper mobility shift); settings: read-out: CDK1/Cyclin B1 IC50
CDK7/CyclinH/MAT1 = CDK7/CyclinH/MAT1 (Homo sapiens (Human), UniProt P50613); test: CDK7/CyclinH/MAT1 kinase inhibitory activity (Caliper mobility shift)
Sequence of CDK7/CyclinH/MAT1 (P50613 whole entry): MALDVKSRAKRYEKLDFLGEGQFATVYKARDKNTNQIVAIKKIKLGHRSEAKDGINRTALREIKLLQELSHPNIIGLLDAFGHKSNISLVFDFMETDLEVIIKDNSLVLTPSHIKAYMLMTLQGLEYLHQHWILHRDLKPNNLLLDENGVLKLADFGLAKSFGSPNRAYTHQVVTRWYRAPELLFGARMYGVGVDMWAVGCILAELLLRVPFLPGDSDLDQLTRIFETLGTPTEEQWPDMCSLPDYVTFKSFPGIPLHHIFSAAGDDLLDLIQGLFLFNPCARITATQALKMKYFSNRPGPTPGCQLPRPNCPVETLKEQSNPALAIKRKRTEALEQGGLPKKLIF
Sequence of CDK7/CyclinH/MAT1 (P51946 whole entry partner): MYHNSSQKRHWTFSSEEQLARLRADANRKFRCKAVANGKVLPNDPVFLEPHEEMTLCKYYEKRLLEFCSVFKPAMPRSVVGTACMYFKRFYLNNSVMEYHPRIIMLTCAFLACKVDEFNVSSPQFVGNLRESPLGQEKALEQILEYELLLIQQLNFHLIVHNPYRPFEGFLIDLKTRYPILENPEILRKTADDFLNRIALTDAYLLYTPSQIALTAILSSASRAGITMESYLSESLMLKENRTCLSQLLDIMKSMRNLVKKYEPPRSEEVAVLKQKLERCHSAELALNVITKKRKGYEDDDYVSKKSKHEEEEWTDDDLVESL
Sequence of CDK7/CyclinH/MAT1 (P51948 whole entry partner): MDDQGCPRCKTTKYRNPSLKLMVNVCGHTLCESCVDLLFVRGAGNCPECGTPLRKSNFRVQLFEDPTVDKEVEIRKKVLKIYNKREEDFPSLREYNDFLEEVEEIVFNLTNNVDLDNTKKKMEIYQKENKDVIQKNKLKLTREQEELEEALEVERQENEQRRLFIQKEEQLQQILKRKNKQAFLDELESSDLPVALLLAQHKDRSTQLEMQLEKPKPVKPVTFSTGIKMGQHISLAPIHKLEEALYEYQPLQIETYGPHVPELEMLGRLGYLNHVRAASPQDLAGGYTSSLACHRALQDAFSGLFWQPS

Sequence of CDK6/CyclinD1 (Q00534 whole entry): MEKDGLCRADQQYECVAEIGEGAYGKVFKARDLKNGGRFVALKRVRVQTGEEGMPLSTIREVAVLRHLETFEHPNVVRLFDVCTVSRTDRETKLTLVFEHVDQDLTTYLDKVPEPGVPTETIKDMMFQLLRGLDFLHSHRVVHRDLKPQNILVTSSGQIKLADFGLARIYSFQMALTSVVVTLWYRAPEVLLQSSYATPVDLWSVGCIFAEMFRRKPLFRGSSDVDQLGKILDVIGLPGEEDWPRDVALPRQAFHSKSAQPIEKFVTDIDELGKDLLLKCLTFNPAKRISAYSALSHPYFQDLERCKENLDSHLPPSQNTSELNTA
Sequence of CDK6/CyclinD1 (P24385 whole entry partner): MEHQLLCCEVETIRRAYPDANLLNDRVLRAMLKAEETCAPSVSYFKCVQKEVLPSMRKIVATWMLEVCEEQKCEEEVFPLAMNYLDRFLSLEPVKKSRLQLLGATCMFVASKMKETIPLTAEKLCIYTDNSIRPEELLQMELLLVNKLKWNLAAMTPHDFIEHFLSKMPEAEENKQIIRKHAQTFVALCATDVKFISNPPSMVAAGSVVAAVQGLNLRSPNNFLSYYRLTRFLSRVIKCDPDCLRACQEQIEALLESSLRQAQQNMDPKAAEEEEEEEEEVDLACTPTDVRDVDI
Sequence of CDK9/CyclinT1 (P50750 whole entry): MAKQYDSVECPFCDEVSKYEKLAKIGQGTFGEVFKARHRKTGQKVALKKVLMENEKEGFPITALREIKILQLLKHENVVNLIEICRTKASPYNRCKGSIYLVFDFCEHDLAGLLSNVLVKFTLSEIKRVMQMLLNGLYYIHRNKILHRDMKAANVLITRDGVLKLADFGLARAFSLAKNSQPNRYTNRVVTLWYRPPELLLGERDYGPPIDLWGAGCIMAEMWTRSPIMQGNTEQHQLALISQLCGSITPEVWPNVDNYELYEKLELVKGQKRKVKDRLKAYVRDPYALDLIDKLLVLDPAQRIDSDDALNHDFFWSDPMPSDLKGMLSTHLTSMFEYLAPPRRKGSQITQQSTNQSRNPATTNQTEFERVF
Sequence of CDK9/CyclinT1 (O60563 whole entry partner): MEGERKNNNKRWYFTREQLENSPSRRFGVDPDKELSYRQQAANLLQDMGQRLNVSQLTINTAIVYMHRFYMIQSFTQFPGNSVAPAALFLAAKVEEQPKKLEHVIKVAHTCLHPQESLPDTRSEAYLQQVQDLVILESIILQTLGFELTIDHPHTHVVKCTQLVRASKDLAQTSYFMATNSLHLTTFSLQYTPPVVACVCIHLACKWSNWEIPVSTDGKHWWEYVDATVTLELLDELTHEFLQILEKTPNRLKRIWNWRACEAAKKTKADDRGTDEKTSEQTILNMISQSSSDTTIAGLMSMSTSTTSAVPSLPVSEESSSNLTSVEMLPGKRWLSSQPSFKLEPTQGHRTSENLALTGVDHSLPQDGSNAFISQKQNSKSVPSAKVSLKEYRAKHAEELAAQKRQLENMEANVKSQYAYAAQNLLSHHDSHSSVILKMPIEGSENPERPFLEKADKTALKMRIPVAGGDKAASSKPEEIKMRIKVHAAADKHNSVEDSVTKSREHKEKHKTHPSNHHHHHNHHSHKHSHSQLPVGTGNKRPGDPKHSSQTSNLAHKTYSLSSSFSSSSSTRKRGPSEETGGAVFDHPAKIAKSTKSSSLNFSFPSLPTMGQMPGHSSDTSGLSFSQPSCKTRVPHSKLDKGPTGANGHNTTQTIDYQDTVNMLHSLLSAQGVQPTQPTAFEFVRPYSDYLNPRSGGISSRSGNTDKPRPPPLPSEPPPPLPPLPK
Sequence of CDK4/Cyclin D1 (P11802 whole entry): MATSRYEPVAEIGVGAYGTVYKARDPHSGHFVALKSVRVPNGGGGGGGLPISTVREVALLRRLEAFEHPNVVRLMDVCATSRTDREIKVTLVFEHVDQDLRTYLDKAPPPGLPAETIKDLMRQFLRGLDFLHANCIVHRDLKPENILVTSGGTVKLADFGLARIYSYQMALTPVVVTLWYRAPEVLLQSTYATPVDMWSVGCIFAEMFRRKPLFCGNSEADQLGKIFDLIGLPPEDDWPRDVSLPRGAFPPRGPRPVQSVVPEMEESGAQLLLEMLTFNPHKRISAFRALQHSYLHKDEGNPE
Sequence of CDK4/Cyclin D1 (P24385 whole entry partner): as the sequence (P24385 whole entry partner) above
Sequence of CDK1/CyclinB (P06493 whole entry): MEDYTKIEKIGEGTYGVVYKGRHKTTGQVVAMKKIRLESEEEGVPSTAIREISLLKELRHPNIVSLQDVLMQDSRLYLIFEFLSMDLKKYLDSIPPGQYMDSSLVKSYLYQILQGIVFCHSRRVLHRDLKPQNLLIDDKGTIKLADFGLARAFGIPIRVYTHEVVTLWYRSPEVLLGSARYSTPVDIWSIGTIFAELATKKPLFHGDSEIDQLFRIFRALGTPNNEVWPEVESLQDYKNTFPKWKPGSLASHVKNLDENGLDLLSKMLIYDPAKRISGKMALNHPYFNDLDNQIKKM
Sequence of CDK1/CyclinB (P14635 whole entry partner): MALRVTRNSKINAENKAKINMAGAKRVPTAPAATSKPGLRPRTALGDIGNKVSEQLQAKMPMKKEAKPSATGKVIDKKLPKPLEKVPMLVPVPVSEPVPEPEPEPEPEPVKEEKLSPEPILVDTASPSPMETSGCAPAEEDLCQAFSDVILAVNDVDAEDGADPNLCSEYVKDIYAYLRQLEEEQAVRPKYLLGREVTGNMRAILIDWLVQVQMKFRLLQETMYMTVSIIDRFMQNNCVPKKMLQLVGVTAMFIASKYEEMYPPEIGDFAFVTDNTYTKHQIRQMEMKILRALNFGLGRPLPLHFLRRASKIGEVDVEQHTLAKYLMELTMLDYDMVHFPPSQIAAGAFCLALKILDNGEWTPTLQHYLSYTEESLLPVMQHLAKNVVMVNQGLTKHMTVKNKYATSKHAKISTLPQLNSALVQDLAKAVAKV

IC50 (CDK9/CyclinT1) [nM] | IC50 (CDK6/CyclinD1) [nM] | IC50 (CDK2/CyclinE1) [nM] | IC50 (CDK4/Cyclin D1) [nM] | IC50 (CDK1/CyclinB) [nM] | IC50 (CDK7/CyclinH/MAT1) [nM] | Compound
100 to 1000 | 100 to 1000 | < 10 | 100 to 1000 | 10 to 100 | 100 to 1000 | O=S(=O)(NC1CCOCC1)c1ccc(Nc2ncc(Cl)c(O[C@@H]3CCC[C@@H]3O)n2)cc1 (single isomer, unassigned) [Example 130a, cis-4-((5-chloro-4-((2-hydroxycyclopentyl)oxy)pyrimidin-2-yl)amino)-N-(tetrahydro-2H-pyran-4-yl)benzenesulfonamide]
100 to 1000 | 100 to 1000 | < 10 | 100 to 1000 | 10 to 100 | 100 to 1000 | CC(C)NS(=O)(=O)c1ccc(Nc2ncc(C3CC3)c(O[C@@H]3CCC[C@@H]3O)n2)cc1 (single isomer, unassigned) [Example 134a, cis-4-((5-cyclopropyl-4-((2-hydroxycyclopentyl)oxy)pyrimidin-2-yl)amino)-N-isopropylbenzenesulfonamide]
10 to 100 | 10 to 100 | < 10 | 10 to 100 | < 10 | 10 to 100 | CC1(O)CCCC1Oc1nc(Nc2ccc(S(N)(=O)=O)cc2)ncc1C1CC1 (single isomer, unassigned) [Example 154a]
100 to 1000 | 10 to 100 | < 10 | < 10 | 10 to 100 | 100 to 1000 | CCS(=O)(=O)N1CCC(Nc2ncc(C#N)c(OC3CCCC3(C)O)n2)CC1 (single isomer, unassigned) [Example 36b]
≥ 1000 | 100 to 1000 | < 10 | 10 to 100 | 10 to 100 | ≥ 1000 | [2H]C([2H])([2H])NS(=O)(=O)c1ccc(Nc2ncc(C(F)(F)F)c(OC3CCCC3)n2)cc1 [Example 108]
100 to 1000 | < 10 | < 10 | < 10 | 10 to 100 | 10 to 100 | CC1(O)CC(F)(F)CCC1Oc1nc(NC2CCN(S(C)(=O)=O)CC2)ncc1C#N (single isomer, unassigned) [Example 47a]
– | ≥ 1000 | 10 to 100 | 100 to 1000 | 10 to 100 | ≥ 1000 | N#Cc1cnc(Nc2ccc(S(N)(=O)=O)cc2)nc1-c1cccc(F)c1 [Example 95]
10 to 100 | 10 to 100 | < 10 | 100 to 1000 | 10 to 100 | 10 to 100 | [2H]C([2H])([2H])NS(=O)(=O)c1ccc(Nc2ncc(CC)c(OC3COCCC3(C)O)n2)cc1 (single isomer, unassigned) [Example 153a]
100 to 1000 | 10 to 100 | < 10 | < 10 | < 10 | 100 to 1000 | Cn1cc(S(=O)(=O)N2CCC(Nc3ncc(C#N)c(OCC4(C)CCCC4)n3)CC2)cn1 [Example 62]
– | 10 to 100 | 10 to 100 | 10 to 100 | – | ≥ 1000 | CC1(O)CCCC1Oc1nc(NC2CCN(S(=O)(=O)CC3CCOC3)CC2)ncc1C#N (single isomer, unassigned) [Example 40b]
100 to 1000 | < 10 | < 10 | < 10 | < 10 | 100 to 1000 | Cn1ccc(S(=O)(=O)N2CCC(Nc3ncc(C#N)c(OCC4(C)CCCC4)n3)CC2)n1 [Example 63]
100 to 1000 | 100 to 1000 | < 10 | 100 to 1000 | 10 to 100 | 100 to 1000 | [2H]C([2H])([2H])NS(=O)(=O)c1ccc(Nc2ncc(C(F)(F)F)c(O[C@H]3CCCOC[C@H]3O)n2)cc1 (single isomer, unassigned) [Example 103a, cis-4-((4-((3-hydroxyoxepan-4-yl)oxy)-5-(trifluoromethyl)pyrimidin-2-yl)amino)-N-(methyl-d3)benzenesulfonamide]
– | 100 to 1000 | 10 to 100 | 100 to 1000 | – | ≥ 1000 | Cn1cc(S(=O)(=O)N2CCC(Nc3ncc(C#N)c(O[C@@H]4CCC(F)(F)C[C@]4(C)O)n3)CC2)cn1 (relative stereo) [Example 7b, cis-4-((4,4-difluoro-2-hydroxy-2-methylcyclohexyl)oxy)-2-((1-((1-methyl-1H-pyrazol-4-yl)sulfonyl)piperidin-4-yl)amino)pyrimidine-5-carbonitrile]
– | 10 to 100 | < 10 | 10 to 100 | – | ≥ 1000 | Cn1cnc(S(=O)(=O)N2CCC(Nc3ncc(C#N)c(OC4CCCC4(C)O)n3)CC2)c1 (single isomer, unassigned) [Example 50b]
– | 100 to 1000 | 10 to 100 | 100 to 1000 | – | ≥ 1000 | CC1(O)CCCC1Oc1nc(NC2CCN(S(=O)(=O)C(F)(F)F)CC2)ncc1C#N (single isomer, unassigned) [Example 42b]
– | ≥ 1000 | 10 to 100 | 100 to 1000 | 100 to 1000 | ≥ 1000 | CNc1cccc(-c2nc(Nc3ccc(S(N)(=O)=O)cc3)ncc2C#N)c1 [Example 97]
– | 10 to 100 | < 10 | 10 to 100 | – | 100 to 1000 | CC1(O)CCCC1Oc1nc(NC2CCN(S(=O)(=O)C(F)(F)F)CC2)ncc1C#N (single isomer, unassigned) [Example 42a]
– | 10 to 100 | < 10 | 10 to 100 | – | 100 to 1000 | Cn1cnc(S(=O)(=O)N2CCC(Nc3ncc(C#N)c(OC4CCCC4(C)O)n3)CC2)n1 (single isomer, unassigned) [Example 51a]
≥ 1000 | 10 to 100 | 10 to 100 | 100 to 1000 | 100 to 1000 | – | CC1(O)CC(F)(F)CC1Oc1nc(NC2CCN(S(=O)(=O)CC3CC3)CC2)ncc1C#N (single isomer, unassigned) [Example 44a]
– | 10 to 100 | < 10 | 10 to 100 | – | 100 to 1000 | CO[C@H]1C[C@](C)(COc2nc(NC3CCN(S(=O)(=O)c4cnn(C)c4)CC3)ncc2C#N)C1 [Example 64a]
≥ 1000 | 100 to 1000 | 100 to 1000 | 100 to 1000 | ≥ 1000 | – | CC1(O)COCCC1Oc1nc(NC2CCN(S(C)(=O)=O)CC2)ncc1C#N (single isomer, unassigned) [Example 45b]
≥ 1000 | 10 to 100 | < 10 | 10 to 100 | 10 to 100 | – | Cn1cc(S(=O)(=O)N2CCC(Nc3ncc(C#N)c(OC4CCCC4(C)O)n3)CC2)cn1 (single isomer, unassigned) [Example 48b]
≥ 1000 | 10 to 100 | 10 to 100 | 100 to 1000 | 100 to 1000 | – | C[C@]1(O)CCC[C@H]1Oc1nc(NC2CCN(S(C)(=O)=O)CC2)ncc1C#N (relative stereo) [Example 5b, cis-4-((2-hydroxy-2-methylcyclopentyl-4,4-d2)oxy)-2-((1-(methylsulfonyl)piperidin-4-yl)amino)pyrimidine-5-carbonitrile]
≥ 1000 | 100 to 1000 | 100 to 1000 | 100 to 1000 | ≥ 1000 | – | CC1(O)COCCC1Oc1nc(NC2CCN(S(C)(=O)=O)CC2)ncc1C(F)(F)F (single isomer, unassigned) [Example 124b]
– | 10 to 100 | 10 to 100 | 10 to 100 | – | ≥ 1000 | CC1(O)CCCC1Oc1nc(NC2CCN(S(=O)(=O)CC(F)(F)F)CC2)ncc1C#N (single isomer, unassigned) [Example 43b]
– | ≥ 1000 | < 10 | ≥ 1000 | 100 to 1000 | ≥ 1000 | [2H]C([2H])([2H])NS(=O)(=O)c1ccc(Nc2ncc(C(F)(F)F)c(OC3CCOCCC3O)n2)cc1 (single isomer, unassigned) [Example 102a, 4-((4-((5-hydroxyoxepan-4-yl)oxy)-5-(trifluoromethyl)pyrimidin-2-yl)amino)-N-(methyl-d3)benzenesulfonamide]
– | 100 to 1000 | 10 to 100 | 100 to 1000 | – | ≥ 1000 | Cn1cnc(S(=O)(=O)N2CCC(Nc3ncc(C#N)c(OC4CCCC4(C)O)n3)CC2)n1 (single isomer, unassigned) [Example 51b]
– | 100 to 1000 | 10 to 100 | 100 to 1000 | – | 100 to 1000 | Cn1cc(S(=O)(=O)N2CCC(Nc3ncc(C(F)(F)F)c(OC4CCOCC4(C)O)n3)CC2)cn1 (single isomer, unassigned) [Example 125b]
– | – | – | ≥ 1000 | 100 to 1000 | ≥ 1000 | [2H]C([2H])([2H])NS(=O)(=O)c1ccc(Nc2ncc(C(F)(F)F)c(O[C@H]3CCCOC[C@H]3O)n2)cc1 (single isomer, unassigned) [Example 103b, cis-4-((4-((3-hydroxyoxepan-4-yl)oxy)-5-(trifluoromethyl)pyrimidin-2-yl)amino)-N-(methyl-d3)benzenesulfonamide]

Compound | IC50 (CDK9/CyclinT1) [nM] | IC50 (CDK6/CyclinD1) [nM] | IC50 (CDK2/CyclinE1) [nM] | IC50 (CDK4/Cyclin D1) [nM] | IC50 (CDK1/CyclinB) [nM] | IC50 (CDK7/CyclinH/MAT1) [nM]
C[C@]1(O)COC[C@H]1Oc1nc(NC2CCN(S(C)(=O)=O)CC2)ncc1C(F)(F)F (relative stereo) [Example 104b, cis-3-methyl-4-((2-((1-(methylsulfonyl)piperidin-4-yl)amino)-5-(trifluoromethyl)pyrimidin-4-yl)oxy)tetrahydrofuran-3-ol] | ≥ 1000 | 100 to 1000 | 10 to 100 | 100 to 1000 | 100 to 1000 | –
